The subject of one assay is LX-2 cells. The assay can be described thus: Fibrosis in LX-2 cells: Col1A1 mRNA induced by TGFβ1, Example 3. Conditions: 24 h. The class given is cell-based, human. As to the method:
FIG. 3 Human hepatic stellate cell line LX-2 was treated with vehicle (DMSO) or TGFβ1 (10 ng/ml) in the absence or presence of GP6 (10 or 40 μg/ml) for 24 h. RNA was extracted and mRNA levels of collagen 1A1 (Col1A1) relative to 18S were measured by RTPCR.
Cell culture reagents were from Life Technologies Inc (Invitrogen SA, Barcelona, Spain). HepG2 hepatoblastoma cells (cat. no. HB-8065; ATCC, LGC Standards SLU, Barcelona, Spain) were maintained in Dulbecco's modified Eagle medium (DMEM) supplemented with 10% fetal bovine serum and antibiotics. HepG2 cells were cultured for 5 day in the absence or presence of 30 mM fructose. Cells cultured in 30 mM fructose were daily treated with vehicle, Telmisartan, Semaglutide or GP6. LX-2 human hepatic stellate cells (SCC064) were maintained in DMEM supplemented with 2% fetal bovine serum and antibiotics. […]
(§1) Total RNA was extracted from HepG2 and LX-2 cells using TRIzol reagent (Invitrogen SA). […] Results were analyzed using the 7000 Sequence Detection System program (Applied Biosystems, Thermo Fisher Scientific, Barcelona, Spain) (Sex Hormone-Binding Globulin Reduction in Metabolic Disorders May Play a Role in NAFLD Development.Saez-Lopez C, Barbosa-Desongles A, Hernandez C, Dyer R A, Innis S M, Simo R, Selva D M. Endocrinology. 2017 Mar. 1; 158(3):545-559. doi: 10.1210/en.2016-1668).

Another assay deals with human mature adipocytes. The assay can be described thus: Lipolysis in human mature adipocytes (glycerol production), Example 3. The class given is cell-based. Conditions: 16 h. As to the method:
FIG. 4 Mature human subcutaneous adipocytes were treated with vehicle (DMSO), 1 μM of Isoproterenol, Semaglutide (10 nM) or GP6 (25, 50 or 100 μg/ml) for 16 h. Glycerol concentration was assessed using a Lipolysis Assay Kit (Tebu-bio).
Human preadipocytes and cell culture reagents were from purchased from Tebu-Bio (Tebu-bio, Barcelona, Spain) and differentiation protocol was done following the manufacturer's instructions. Human adipocytes were maintained in a humidified incubator with 5% CO2 at 37° C. (Sex hormone-binding globulin overexpression protects against high-fat diet-induced obesity in transgenic male mice. Saez-Lopez C, Villena J A, Simo R, Selva D M. J Nutr Biochem. 2020 November; 85:108480. doi: 10.1016/j.jnutbio.2020.108480).
Lipolysis assays were performed using a Lipolysis Kit (Tebu-Bio) following the manufacturer's instructions as previously described by Saez-Lopez and collaborators (Sex hormone-binding globulin overexpression protects against high-fat diet-induced obesity in transgenic male mice. Saez-Lopez C, Villena J A, Simo R, Selva D M. J Nutr Biochem. 2020 November; 85:108480. doi: 10.1016/j.jnutbio.2020.108480.)

Assay [1] concerns HepG2 cells. Description: Hepatic lipogenesis in HepG2 cells induced by 30 mM fructose (ACC and PPARγ mRNA), Example 3. The class given is cell-based, human. Conditions: 5 days. As to the method: FIG. 2. Human hepatoblastoma cell line HepG2 was treated with vehicle (DMSO) in the absence or presence of 30 mM fructose and Telmisartan (5 μg/ml), Semaglutide (10 nM) or GP6 (10 or 40 μg/ml) for 5 days. RNA was extracted and mRNA levels of Acetyl-CoA Carboxylase (ACC) (panel A) and Peroxisome proliferator-activated receptor gamma (PPARγ) (panel B) relative to 18S were measured by RTPCR.
Cell culture reagents were from Life Technologies Inc (Invitrogen SA, Barcelona, Spain). HepG2 hepatoblastoma cells (cat. no. HB-8065; ATCC, LGC Standards SLU, Barcelona, Spain) were maintained in Dulbecco's modified Eagle medium (DMEM) supplemented with 10% fetal bovine serum and antibiotics. HepG2 cells were cultured for 5 day in the absence or presence of 30 mM fructose. Cells cultured in 30 mM fructose were daily treated with vehicle, Telmisartan, Semaglutide or GP6. LX-2 human hepatic stellate cells (SCC064) were maintained in DMEM supplemented with 2% fetal bovine serum and antibiotics. For experiments, LX-2 were cultured for 24 h in DMEM 0.2% FBS and treated for 24 h with vehicle or TGFβ1 (20 ng/ml) in the absence or presence of GP6 (10 or 40 μg/ml). At the end of the experiment's cells were harvested for gene expression analysis.
as §1, with “SA). Reverse transcription was performed at 42° C. for 50 minutes using […] of total RNA, 200 U of Superscript II, and an oligo-dT primer and reagents provided by Invitrogen.” for “SA).”

The test system of assay [2] is HepG2 cells. The assay can be described thus: Hepatic lipogenic key enzymes in HepG2 cells in the presence of 30 mM fructose (2 h), Example 7. The following applies: 40 μg/ml. The class given is cell-based, human. As to the method: FIG. 34. Effects of different peptides and SHBG in reducing hepatic lipogenic key enzymes in the presence of 30 mM fructose. Each bar within each group represents mRNA levels of a key hepatic lipogenic enzyme, from left to right: Acetyl-CoA Carboxylase (ACC), ATP Citrate Lyase (ACLY) and Fatty Acid Synthase (FAS), and a key transcription factor regulating several lipogenic enzymes such as PPARγ (PPARγ).
Cell culture reagents were from Life Technologies Inc (Invitrogen SA, Barcelona, Spain). HepG2 hepatoblastoma cells (cat. no. HB-8065; ATCC, LGC Standards SLU, Barcelona, Spain) were maintained in Dulbecco's modified Eagle medium (DMEM) supplemented with 10% fetal bovine serum and antibiotics.
• HepG2 cells were cultured for 5 day in the absence or presence of 30 mM fructose. Cells cultured in 30 mM fructose were daily treated with vehicle, Telmisartan, Semaglutide or EDL6D. • HepG2 cells were cultured for 24 h in the absence or presence of GP6 (40 μg/ml), GP10 (40 μg/ml), GP11 (40 μg/ml), GP12 (40 μg/ml), GP13 (40 μg/ml) or SHBG (20 nM). • HepG2 cells were cultured in the absence or presence of 30 mM fructose and treated for 2 h with vehicle or GP4 (40 μg/ml), GP6 (40 μg/ml), GP7 (40 μg/ml), GP8 (40 μg/ml), GP9 (40 μg/ml), GP10 (40 μg/ml), GP11 (40 μg/ml), GP12 (40 μg/ml), GP13 (40 μg/ml) or SHBG (20 nM).
Total RNA was extracted from HepG2 and LX-2 cells using TRIzol reagent (Invitrogen SA). Reverse transcription was performed at 42° C. for 50 minutes using […] of total RNA, 200 U of Superscript II, and an oligo-dT primer and reagents provided by Invitrogen. An aliquot of the reverse transcription product was amplified in a […] reaction using SYBRGreen (Invitrogen SA) with appropriate oligonucleotide primer pairs corresponding to human SHBG, ACC, FAS, ACLY, PPARG, and 18S and mouse ACC, FAS, ACLY, PPARG, Col1A1 and 18S. Results were analyzed using the 7000 Sequence Detection System program (Applied Biosystems, Thermo Fisher Scientific, Barcelona, Spain) (Shez-Lopez et al Endocrinology 2017).

`CC[C@@H](C)[C@@H](NC(=O)[C@H](NC(=O)CNC(=O)[C@@H](CCC(=O)O)NC(=O)[C@H]1CCCN1C(=O)[C@@H](CC(=O)O)NC(=O)[C@@H](Cc1c[nH]c2ccccc12)NC(=O)[C@H](NC(=O)[C@@H](CCCNC(=N)N)NC(=O)[C@H](NC(=O)[C@@H](CCC(=O)O)NC(=O)[C@@H](Cc1ccccc1)NC(=O)[C@@H](CO)NC(=O)[C@@H](CO)NC(=O)[C@@H](CO)NC(=O)[C@H](NC(=O)[C@@H](CCCCN)NC(=O)[C@H](N)[C@H](C)O)[C@H](C)O)C(C)C)[C@H](C)O)C(C)C)C(=O)N[C@H](Cc1ccccc1)C(=O)N[C@H](Cc1ccc(O)cc1)C(=O)O` [GP6]: in the assay with LX-2 cells (10 μg/ml), the “reduction of mRNA levels of collagen 1A1 induced by TGFβ1” value is 28%. The “reduction of mRNA levels of collagen 1A1 induced by TGFβ1” value in the assay with LX-2 cells (40 μg/ml) was determined as 45%. The “increase of glycerol production (lipolysis)” value (shortened to “increase”) in the assay on human mature adipocytes (25 μg/ml) amounted to 200%. In addition, in the assay on human mature adipocytes (50 μg/ml), the “increase” value came to 270%. Moreover, in the assay with human mature adipocytes (100 μg/ml), the “increase” value is listed as 315%. For the same molecule, in the assay with human mature adipocytes (GP6 25, 50 or 100 μg/ml versus Semaglutide 10 nM), the “lipolysis induction compared with Semaglutide” value is on record as “performing more efficiently than Semaglutide”. The “effectiveness in reducing the induced expression of ACC and PPARγ versus positive controls” value with HepG2 cells [1] (GP6 10 or 40 μg/ml versus Telmisartan 5 μg/ml and Semaglutide 10 nM, 30 mM fructose) is “significantly much more effective than Telmisartan and Semaglutide”. Further, in the assay with HepG2 cells [1] (GP6 10 or 40 μg/ml, daily), the “ACC mRNA levels induced by 30 mM fructose” value is given as “reducing mRNA levels” and the “PPARγ mRNA levels induced by 30 mM fructose” value was “reducing mRNA levels”. In addition, in the assay on HepG2 cells [2], the “fructose-induced expression of ACC” value is “able to reduce”, the “fructose-induced expression of ACLY” value is “able to reduce”, the “fructose-induced expression of FAS” value is given as “able to reduce” and the “fructose-induced expression of PPARγ” value was “able to reduce”.

The record behind these values is US20260297136A1, “PEPTIDES WITH LIPOLYTIC, ANTI-LIPOGENIC, ANTIFIBROTIC AND ANTI-INFLAMMATORY ACTIVITY” (FUNDACIÓ HOSPITAL UNIVERSITARI VALL D'HEBRON - INSTITUT DE …, priority 2023, published 2026).
